# Measurements from ChEMBL document CHEMBL3132769, “Fragment growing to retain or alter the selectivity of anchored kinase hinge-binding fragments” (Medchemcomm, 2014).
# What was measured:
# [1] = target: Ribosomal protein S6 kinase alpha-5 (Homo sapiens) (UniProt O75582); assay: Inhibition of human full length MSK1 expressed in baculovirus assessed as substrate phosphorylation using fluorescence-labelled peptides as substrate at 0.06 uM after 90 mins by microfluidic peptide phosphorylation assay
# [2] = target: MAP kinase p38 (Homo sapiens) (UniProt O15264+Q15759+Q16539+P53778); conditions: 0.1 uM
# Description: Inhibition of human full length p38 beta2 expressed in Escherichia coli cell assessed as substrate phosphorylation using fluorescence-labelled peptides as substrate at 0.1 uM after 90 mins by microfluidic peptide phosphorylation assay
# [3] = target: Protein kinase C eta type (Homo sapiens) (UniProt P24723); assay: Inhibition of human truncated PKC eta expressed in baculovirus assessed as substrate phosphorylation using fluorescence-labelled peptides as substrate at […] after 90 mins by microfluidic peptide phosphorylation assay
# [4] = target: Casein kinase I isoform alpha (Homo sapiens) (UniProt P48729); assay: Inhibition of human full length CSNK1A1 expressed in baculovirus assessed as substrate phosphorylation using fluorescence-labelled peptides as substrate at 420 uM after 90 mins by microfluidic peptide phosphorylation assay
# [5] = target: T1, Serine/threonine-protein kinase Sgk1 (Homo sapiens) (UniProt O00141); assay: Inhibition of human truncated SGK1 expressed in baculovirus assessed as substrate phosphorylation using fluorescence-labelled peptides as substrate at 420 uM after 90 mins by microfluidic peptide phosphorylation assay
# T1 sequence (whole entry): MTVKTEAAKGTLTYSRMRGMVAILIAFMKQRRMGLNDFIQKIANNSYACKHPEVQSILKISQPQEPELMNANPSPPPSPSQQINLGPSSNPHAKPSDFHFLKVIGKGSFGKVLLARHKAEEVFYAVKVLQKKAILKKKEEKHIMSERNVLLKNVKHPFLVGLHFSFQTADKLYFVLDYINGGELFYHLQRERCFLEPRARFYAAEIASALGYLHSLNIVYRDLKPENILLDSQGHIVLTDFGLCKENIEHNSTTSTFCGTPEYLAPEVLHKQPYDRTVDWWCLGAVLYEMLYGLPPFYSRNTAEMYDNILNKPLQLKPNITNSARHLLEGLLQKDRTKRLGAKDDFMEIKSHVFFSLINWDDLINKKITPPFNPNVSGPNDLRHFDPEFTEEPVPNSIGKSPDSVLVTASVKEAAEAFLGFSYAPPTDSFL
# [6] = target: Cyclin-dependent kinase 2 (Homo sapiens) (UniProt P24941); assay: Inhibition of human full length CDK2 expressed in baculovirus assessed as substrate phosphorylation using fluorescence-labelled peptides as substrate at 420 uM after 90 mins by microfluidic peptide phosphorylation assay
# [7] = target: T2, Interleukin-1 receptor-associated kinase 4 (Homo sapiens) (UniProt Q9NWZ3); assay: Inhibition of human IRAK4 catalytic domain expressed in baculovirus assessed as substrate phosphorylation using fluorescence-labelled peptides as substrate at 420 uM after 90 mins by microfluidic peptide phosphorylation assay
# T2 sequence (whole entry): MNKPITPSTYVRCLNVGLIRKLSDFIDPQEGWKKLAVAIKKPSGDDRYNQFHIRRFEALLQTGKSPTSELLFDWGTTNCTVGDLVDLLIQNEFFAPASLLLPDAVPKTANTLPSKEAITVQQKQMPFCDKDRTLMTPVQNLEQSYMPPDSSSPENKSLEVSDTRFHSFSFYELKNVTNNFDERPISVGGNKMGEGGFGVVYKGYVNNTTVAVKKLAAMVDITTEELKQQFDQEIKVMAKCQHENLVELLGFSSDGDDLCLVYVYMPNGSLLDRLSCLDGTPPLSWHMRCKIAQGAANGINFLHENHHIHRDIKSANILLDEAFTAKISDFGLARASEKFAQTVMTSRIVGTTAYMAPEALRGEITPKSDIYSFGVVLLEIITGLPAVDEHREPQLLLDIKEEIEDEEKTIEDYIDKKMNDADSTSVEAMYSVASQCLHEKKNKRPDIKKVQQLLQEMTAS
# [8] = target: T3, Protein kinase C zeta type (Homo sapiens) (UniProt Q05513); assay: Inhibition of human full length PKC zeta expressed in baculovirus assessed as substrate phosphorylation using fluorescence-labelled peptides as substrate at 420 uM after 90 mins by microfluidic peptide phosphorylation assay
# T3 sequence (whole entry): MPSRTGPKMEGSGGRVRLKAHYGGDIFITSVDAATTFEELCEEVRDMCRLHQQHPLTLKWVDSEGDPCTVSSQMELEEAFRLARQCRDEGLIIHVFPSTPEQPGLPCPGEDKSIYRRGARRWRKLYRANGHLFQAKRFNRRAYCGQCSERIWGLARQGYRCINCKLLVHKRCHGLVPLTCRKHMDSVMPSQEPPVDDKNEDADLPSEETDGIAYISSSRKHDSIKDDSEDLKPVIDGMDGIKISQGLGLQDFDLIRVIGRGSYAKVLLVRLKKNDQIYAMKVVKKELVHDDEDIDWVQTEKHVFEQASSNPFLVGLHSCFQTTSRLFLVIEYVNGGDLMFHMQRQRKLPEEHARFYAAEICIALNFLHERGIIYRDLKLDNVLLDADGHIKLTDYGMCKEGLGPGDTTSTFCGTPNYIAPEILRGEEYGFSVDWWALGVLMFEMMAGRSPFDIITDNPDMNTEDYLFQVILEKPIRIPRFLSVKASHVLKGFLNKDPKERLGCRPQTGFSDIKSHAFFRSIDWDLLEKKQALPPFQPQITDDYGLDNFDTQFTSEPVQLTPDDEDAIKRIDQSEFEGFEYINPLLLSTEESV
# [9] = target: Fibroblast growth factor receptor 4 (Homo sapiens) (UniProt P22455); assay: Inhibition of human FGFR4 catalytic domain expressed in baculovirus assessed as substrate phosphorylation using fluorescence-labelled peptides as substrate at 70 uM after 90 mins by microfluidic peptide phosphorylation assay
# [10] = target: Mitogen-activated protein kinase 3 (Homo sapiens) (UniProt P27361); assay: Inhibition of human full length ERK1 expressed in Escherichia coli cell assessed as substrate phosphorylation using fluorescence-labelled peptides as substrate at 70 uM after 90 mins by microfluidic peptide phosphorylation assay
# [11] = target: Serine/threonine-protein kinase pim-1 (Homo sapiens) (UniProt P11309); assay: Inhibition of human full length PIM1 expressed in baculovirus assessed as substrate phosphorylation using fluorescence-labelled peptides as substrate at 0.2 uM after 90 mins by microfluidic peptide phosphorylation assay
# [12] = target: Tyrosine-protein kinase Fer (Homo sapiens) (UniProt P16591); assay: Inhibition of human FER catalytic domain expressed in baculovirus assessed as substrate phosphorylation using fluorescence-labelled peptides as substrate at 2 uM after 90 mins by microfluidic peptide phosphorylation assay
# [13] = target: Insulin-like growth factor 1 receptor (Homo sapiens) (UniProt P08069); assay: Inhibition of human IGF1R catalytic domain expressed in baculovirus assessed as substrate phosphorylation using fluorescence-labelled peptides as substrate at 2 uM after 90 mins by microfluidic peptide phosphorylation assay
# [14] = target: MAP/microtubule affinity-regulating kinase 3 (Homo sapiens) (UniProt P27448); assay: Inhibition of human full length c-TAK1 expressed in Escherichia coli cell assessed as substrate phosphorylation using fluorescence-labelled peptides as substrate at 8 uM after 90 mins by microfluidic peptide phosphorylation assay
# MAP/microtubule affinity-regulating kinase 3 (Homo sapiens), sequence (P27448 whole entry, looked up): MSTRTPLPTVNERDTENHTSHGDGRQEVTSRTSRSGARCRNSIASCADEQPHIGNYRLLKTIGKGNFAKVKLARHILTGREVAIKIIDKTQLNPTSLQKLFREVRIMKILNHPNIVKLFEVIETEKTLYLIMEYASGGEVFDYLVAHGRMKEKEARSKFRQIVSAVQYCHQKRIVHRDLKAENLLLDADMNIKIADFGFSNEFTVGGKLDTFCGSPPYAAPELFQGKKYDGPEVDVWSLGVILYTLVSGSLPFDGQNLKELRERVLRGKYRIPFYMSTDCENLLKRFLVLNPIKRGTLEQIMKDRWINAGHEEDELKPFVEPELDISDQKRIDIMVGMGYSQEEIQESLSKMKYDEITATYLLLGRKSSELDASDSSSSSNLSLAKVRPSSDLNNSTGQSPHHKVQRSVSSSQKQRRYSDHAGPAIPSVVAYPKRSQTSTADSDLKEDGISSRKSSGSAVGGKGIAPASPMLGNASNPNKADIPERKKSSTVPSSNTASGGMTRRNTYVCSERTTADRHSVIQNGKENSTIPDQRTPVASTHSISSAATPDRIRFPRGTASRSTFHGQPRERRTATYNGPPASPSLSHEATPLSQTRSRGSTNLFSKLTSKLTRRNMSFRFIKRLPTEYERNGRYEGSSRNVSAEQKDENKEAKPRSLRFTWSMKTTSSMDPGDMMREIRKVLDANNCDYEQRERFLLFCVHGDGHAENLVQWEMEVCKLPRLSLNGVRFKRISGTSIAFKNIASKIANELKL
# Ribosomal protein S6 kinase alpha-5 (Homo sapiens), sequence (O75582 whole entry, looked up): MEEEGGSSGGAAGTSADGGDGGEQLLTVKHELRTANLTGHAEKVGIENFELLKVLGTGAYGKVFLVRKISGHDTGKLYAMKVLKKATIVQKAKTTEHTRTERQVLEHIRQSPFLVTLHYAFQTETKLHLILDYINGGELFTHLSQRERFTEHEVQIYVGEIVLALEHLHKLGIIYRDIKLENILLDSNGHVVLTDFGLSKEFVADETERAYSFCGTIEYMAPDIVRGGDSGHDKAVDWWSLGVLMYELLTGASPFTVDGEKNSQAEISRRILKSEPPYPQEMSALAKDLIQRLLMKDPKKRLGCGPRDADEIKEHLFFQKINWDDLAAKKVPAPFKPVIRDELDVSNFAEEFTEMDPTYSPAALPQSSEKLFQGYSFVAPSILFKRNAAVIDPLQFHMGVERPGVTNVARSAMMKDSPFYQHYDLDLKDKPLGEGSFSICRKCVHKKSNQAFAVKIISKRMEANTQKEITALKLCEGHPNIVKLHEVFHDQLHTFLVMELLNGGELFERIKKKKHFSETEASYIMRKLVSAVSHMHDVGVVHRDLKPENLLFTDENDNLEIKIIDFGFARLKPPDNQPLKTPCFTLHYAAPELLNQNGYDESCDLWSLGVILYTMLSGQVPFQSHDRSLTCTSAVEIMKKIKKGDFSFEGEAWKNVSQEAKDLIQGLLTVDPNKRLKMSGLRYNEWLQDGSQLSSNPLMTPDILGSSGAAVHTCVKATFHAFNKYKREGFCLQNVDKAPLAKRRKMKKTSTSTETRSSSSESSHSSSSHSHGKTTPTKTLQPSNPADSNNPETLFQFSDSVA
# Fibroblast growth factor receptor 4 (Homo sapiens), sequence (P22455 22-802 limits assumed): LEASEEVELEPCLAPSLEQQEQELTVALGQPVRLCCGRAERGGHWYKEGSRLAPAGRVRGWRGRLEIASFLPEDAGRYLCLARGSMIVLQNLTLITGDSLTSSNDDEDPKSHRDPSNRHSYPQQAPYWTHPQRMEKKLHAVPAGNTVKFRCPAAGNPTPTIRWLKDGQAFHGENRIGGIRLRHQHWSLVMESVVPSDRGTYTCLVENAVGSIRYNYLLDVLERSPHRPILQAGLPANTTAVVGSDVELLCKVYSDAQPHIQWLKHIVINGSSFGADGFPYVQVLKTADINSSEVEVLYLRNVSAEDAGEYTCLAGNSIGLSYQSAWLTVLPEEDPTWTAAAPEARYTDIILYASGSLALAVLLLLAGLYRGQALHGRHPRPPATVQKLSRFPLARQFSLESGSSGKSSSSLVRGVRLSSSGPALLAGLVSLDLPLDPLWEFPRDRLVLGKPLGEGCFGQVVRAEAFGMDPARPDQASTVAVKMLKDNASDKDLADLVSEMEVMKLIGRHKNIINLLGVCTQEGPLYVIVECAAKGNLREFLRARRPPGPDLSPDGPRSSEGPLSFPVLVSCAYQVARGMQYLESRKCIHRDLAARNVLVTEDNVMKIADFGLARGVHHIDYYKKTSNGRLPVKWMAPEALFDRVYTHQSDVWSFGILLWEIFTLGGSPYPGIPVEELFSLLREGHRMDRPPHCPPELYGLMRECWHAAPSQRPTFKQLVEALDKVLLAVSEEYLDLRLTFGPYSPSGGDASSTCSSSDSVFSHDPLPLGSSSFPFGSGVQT
# Mitogen-activated protein kinase 3 (Homo sapiens), sequence (P27361 whole entry): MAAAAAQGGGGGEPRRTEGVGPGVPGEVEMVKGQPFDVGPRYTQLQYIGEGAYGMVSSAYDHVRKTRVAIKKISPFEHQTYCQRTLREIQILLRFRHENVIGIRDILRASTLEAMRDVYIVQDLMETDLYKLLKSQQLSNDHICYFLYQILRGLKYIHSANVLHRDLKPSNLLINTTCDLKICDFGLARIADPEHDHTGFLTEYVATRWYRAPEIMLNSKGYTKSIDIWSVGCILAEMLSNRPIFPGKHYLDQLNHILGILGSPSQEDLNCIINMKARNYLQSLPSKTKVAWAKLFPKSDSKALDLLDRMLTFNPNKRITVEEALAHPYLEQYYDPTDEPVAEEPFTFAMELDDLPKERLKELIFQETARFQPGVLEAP
# Tyrosine-protein kinase Fer (Homo sapiens), sequence (P16591 whole entry, looked up, the tested form may be a part): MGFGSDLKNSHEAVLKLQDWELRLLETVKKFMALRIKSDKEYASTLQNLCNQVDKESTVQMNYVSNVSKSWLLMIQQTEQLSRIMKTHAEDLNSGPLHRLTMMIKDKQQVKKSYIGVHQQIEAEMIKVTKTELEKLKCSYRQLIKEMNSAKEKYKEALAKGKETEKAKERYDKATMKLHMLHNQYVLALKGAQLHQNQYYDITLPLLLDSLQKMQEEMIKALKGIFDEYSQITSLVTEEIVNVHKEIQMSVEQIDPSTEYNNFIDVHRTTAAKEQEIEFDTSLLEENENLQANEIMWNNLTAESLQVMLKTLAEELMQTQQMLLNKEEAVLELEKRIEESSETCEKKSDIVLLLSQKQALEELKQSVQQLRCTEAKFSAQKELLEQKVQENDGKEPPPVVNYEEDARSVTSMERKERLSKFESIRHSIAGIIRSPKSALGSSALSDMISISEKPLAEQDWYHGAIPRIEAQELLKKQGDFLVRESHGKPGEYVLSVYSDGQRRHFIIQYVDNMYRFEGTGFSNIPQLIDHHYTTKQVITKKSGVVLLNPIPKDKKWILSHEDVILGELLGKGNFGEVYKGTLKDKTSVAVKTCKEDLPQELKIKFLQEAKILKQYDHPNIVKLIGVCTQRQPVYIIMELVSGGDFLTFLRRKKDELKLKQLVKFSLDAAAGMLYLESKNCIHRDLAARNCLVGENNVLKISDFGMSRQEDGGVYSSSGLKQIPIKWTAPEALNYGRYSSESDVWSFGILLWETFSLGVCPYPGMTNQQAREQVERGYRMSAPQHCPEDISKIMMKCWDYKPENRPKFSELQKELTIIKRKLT
# Casein kinase I isoform alpha (Homo sapiens), sequence (P48729 2-337 limits assumed): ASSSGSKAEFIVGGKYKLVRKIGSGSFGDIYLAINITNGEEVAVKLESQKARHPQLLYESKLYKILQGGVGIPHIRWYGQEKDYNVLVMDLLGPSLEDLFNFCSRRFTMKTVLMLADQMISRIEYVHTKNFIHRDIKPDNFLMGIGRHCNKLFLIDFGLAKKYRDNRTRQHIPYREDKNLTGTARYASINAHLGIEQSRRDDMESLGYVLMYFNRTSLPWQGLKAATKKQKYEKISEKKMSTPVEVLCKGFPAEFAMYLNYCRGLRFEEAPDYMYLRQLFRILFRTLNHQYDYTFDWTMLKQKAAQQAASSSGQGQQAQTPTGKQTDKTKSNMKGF
# Protein kinase C eta type (Homo sapiens), sequence (P24723 whole entry, the tested form may be a part, canonical isoform): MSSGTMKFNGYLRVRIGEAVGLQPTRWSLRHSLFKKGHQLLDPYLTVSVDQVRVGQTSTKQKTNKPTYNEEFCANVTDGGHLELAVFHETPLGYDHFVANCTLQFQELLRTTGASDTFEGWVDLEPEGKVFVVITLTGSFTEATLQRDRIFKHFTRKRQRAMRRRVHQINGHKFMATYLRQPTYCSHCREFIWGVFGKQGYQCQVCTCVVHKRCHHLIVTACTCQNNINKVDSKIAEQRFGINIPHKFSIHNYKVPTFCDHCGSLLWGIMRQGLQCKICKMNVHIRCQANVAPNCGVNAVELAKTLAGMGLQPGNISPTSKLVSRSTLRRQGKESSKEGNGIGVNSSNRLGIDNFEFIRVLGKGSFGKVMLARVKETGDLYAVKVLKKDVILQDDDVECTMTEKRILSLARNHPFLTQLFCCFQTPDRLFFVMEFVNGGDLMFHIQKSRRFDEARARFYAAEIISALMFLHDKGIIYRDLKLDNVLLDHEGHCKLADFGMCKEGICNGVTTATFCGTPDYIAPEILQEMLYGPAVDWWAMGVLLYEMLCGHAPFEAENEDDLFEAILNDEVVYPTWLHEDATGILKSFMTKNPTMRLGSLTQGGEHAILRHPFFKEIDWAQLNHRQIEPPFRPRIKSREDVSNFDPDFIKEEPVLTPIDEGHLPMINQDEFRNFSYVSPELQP
# Serine/threonine-protein kinase pim-1 (Homo sapiens), sequence (P11309 whole entry, looked up, the tested form may be a part): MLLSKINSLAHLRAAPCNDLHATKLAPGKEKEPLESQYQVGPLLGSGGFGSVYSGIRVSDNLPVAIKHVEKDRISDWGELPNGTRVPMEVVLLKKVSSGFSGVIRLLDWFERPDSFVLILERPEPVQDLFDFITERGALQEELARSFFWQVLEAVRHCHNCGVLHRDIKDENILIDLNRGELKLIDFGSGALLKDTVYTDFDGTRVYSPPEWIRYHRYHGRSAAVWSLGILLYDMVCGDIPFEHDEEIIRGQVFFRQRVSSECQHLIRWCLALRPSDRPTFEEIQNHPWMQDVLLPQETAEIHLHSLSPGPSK
smiles,measurement,setting,value
NC1(Cc2ccc(Cl)cc2)CCN(c2ncnc3[nH]ccc23)CC1,inhibition,[1],5.5%
C[C@H](CN(C)C)Oc1nc(Nc2cc3cccc(Cl)c3cn2)cnc1C#N,inhibition,[2],0%
COC(=O)c1cnc(Nc2cnc(C#N)cn2)cc1NCC1CCNCC1,inhibition,[3],1%
c1nc(N2CCOCC2)c2nc[nH]c2n1,inhibition,[4],60.5%
same,inhibition,[5],83.5%
same,inhibition,[6],75%
same,inhibition,[7],74.5%
same,inhibition,[8],46%
CNCc1ccc(-c2ncnc3[nH]cnc23)cc1,inhibition,[9],11.5%
same,inhibition,[10],28.5%
Clc1ccc(C2(c3ccc(-c4ncnc5[nH]cnc45)cc3)CCNCC2)cc1,inhibition,[11],0%
NC1CCN(c2ncnc3[nH]ccc23)CC1,inhibition,[12],13.5%
same,inhibition,[13],0%
NCC1CCN(c2ncnc3[nH]ccc23)CC1,inhibition,[14],3%
